Test results reported in ChEMBL document CHEMBL5634123, “Design and synthesis of 1H-benzo[d]imidazole selective HDAC6 inhibitors with potential therapy for multiple myeloma” (Eur J Med Chem, 2023).

Tests used:
[1] = Toxicity in Balb/c nude mouse xenografted with human RPMI-8226 cells assessed as body weight loss at 10 to 40 mg/kg, po qd for 21 days administered consecutively; type: organism-based; conditions: in vivo, 504 h, dose 10-40 mg/kg, time 21 day
RPMI-8226 = assay: Induction of apoptosis in human RPMI-8226 cells assessed as viable cells at 2.5 uM incubated for 24 hrs by Annexin V-FITC/PI staining based flow cytometry (reference value: 90.98 %); type: functional; conditions: read-out: Activity

Q: Which results are given for Cn1c([C@@H](Cc2ccccc2)NCc2ccccc2)nc2cc(C(=O)NO)ccc21?
A: Activity [1]: Non-Toxic; viability at 2.5 µM (RPMI-8226): 76.5%
